# Patent publication US10729693B2, “Compositions and methods for the treatment of endometriosis” (PONCE MEDICAL SCHOOL FOUNDATION, INC., priority 2018, dated 2020)
# What was measured:
# Type in all cases: in vivo, rat
# [1] = test system: CRH, UCN1, CRHR1, CRHR2 and glucocorticoid receptor (GR) mRNA; assay: qRT-PCR of mRNA levels in uterus and endometriosis vesicles; settings: normalized to sham uterus, day 60
# Description: Endometriosis vesicles and normal uterine tissue from endometriosis or sham rats, were lysed in an RLT buffer (QIAGEN, Germantown, Md.) using the BULLET BLENDER Tissue Homogenizer (NEXT ADVANCE, Averill Park, N.Y.). The total RNA from the lysates were extracted according to RNEASY Mini Kit manufacturer's protocol (QIAGEN, Germantown, Md.). RNA concentration and purity were measured on a NanoDrop™ 2000 UV spectrophotometer (Thermo Scientific™, Wilmington, USA). Concentration and quality of RNA samples were acquired based on the ratio of absorbance at 260/280 nm in the spectrophotometer. To carry out the synthesis of cDNA from RNA samples a total reaction volume of 20 μl including 0.1 μg of total RNA concentration and synthesis reagents was used. A iScript™ cDNA Synthesis Kit was used according to manufacturer's protocol (BIO-RAD, Hercules, Calif.). Reactions were carried out in T-100™ thermal cycler (BIO-RAD, Hercules, Calif.). RT-PCR running method was as follows: 25° C. for 5 min, 42° C. for 30 min, 85° C. for 5 min. Samples were stored at −80° C. for later experimentation or qRT-PCR.
# Real time quantitative PCR (qPCR) was used to evaluate changes in mRNA expression. For this, 25 μl of a total volume of reaction assay was used with 1:10 dilution of cDNA with iQ™ SYBR Green Supermix (BIO-RAD Hercules, Calif.) in a 96 well plate according to the manufacturer protocol and amplified in a Quant Studio™ 12 K Flex Real time PCR System (Applied Biosystems™, Carlsbad, Calif.). Commercial primers for CRH, UCN1 CRHR1, CRHR2 and glucocorticoid receptor (GR) were purchased from QIAGEN (Germantown, Md.). Real time PCR cycles protocol was as follows: 95° C. for 10 min. for enzyme activation followed by 40 cycles of denaturing at 95° C. for 15 sec. and annealing at 60° C. for 1 min. All changes in gene expression were normalized against GAPDH of each sample. CT values and changes per gene expression level were automatically analyzed by the Quantstudio™ 12 K Flex Software (Applied Biosystems™, Carlsbad, Calif.). All samples were run in duplicate. For comparison purposes, mRNA from sham rats were always run within the same plate as experimental samples from vehicle treated and antalarmin treated groups.
# GraphPad Prism 6.0 (GraphPad Software, San Diego, Calif.) was used to prepare graphs and run statistical analyses. Data is presented as mean difference+SEM and a p value <0.05 was considered statistically significant. The variability between groups was first assessed followed by a test for outlier values. […] A One-way analysis of variance (ANOVA) was used to compare behaviors. A one-sample t-test against the sham rats value normalized to 1.0. was used to assess RT-PCR results. A repeated measures One-way ANOVA was used to compare changes in weight gain between treatment groups.
# [2] = test system: corticosterone, adrenocorticotropic hormone (ACTH), IL-6; assay: ELISA of serum corticosterone and ACTH and of peritoneal fluid IL-6; settings: at sacrifice
# Source text: It was verified that the animals were deeply anesthetized. Rats were weighed, and a cytological smear taken to verify stage of the estrous cycle. The peritoneal and thoracic cavities were opened, and a blood sample was collected directly from the heart. Following this, peritoneal fluid was collected using a sterile plastic pipette. Examination was directed to the presence of endometriosis vesicles. The implants that developed into vesicles were excised from the mesentery, weighed and measured using a digital caliper. Classification of vesicles was carried out and assigned the following grades: grade 1=disappeared; grade 2=0.01-1.99 mm; grade 3=2-4.49 mm; grade 4=4.5-5.99 mm; grade 5=6.0 mm or larger. In sham animals, empty suture sites were counted and collected. In addition to the endometriosis vesicles, the adrenal glands were collected, all surrounding fatty tissue was removed, and the cleared adrenal glands were weighed. Additionally, tissues from colon and the left uterine horn were collected. All tissues were flash frozen and stored at −80° until further processing.
# Serum and peritoneal fluid samples from animals were tested for levels of corticosterone, adrenocorticotropic hormone (ACTH) and the pro-inflammatory cytokine IL-6 following instructions in the commercial kits. The following kits were used: Corticosterone rat/mouse kit (Cat. #79175; IBL America, Minneapolis, Minn.); Rat IL-6 pre-coated ELISA kit (Cat. #437107; BioLegend, San Diego, Calif.); Mouse/rat ACTH ELISA kit (Cat. # AC018T-100, Calbiotech, El Cajon, Calif.).
# [3] = test system: mineralocorticoid receptor 2 mRNA; assay: mRNA of mineralocorticoid receptor 2 within the adrenal glands; settings: compared to sham group
# Description: FIG. 18: mRNA of mineralocorticoid receptor 2. Within the adrenal glands of the same animals from the sham or endometriosis groups that received vehicle or antalarmin, the mRNA of the mineralocorticoid receptor 2 was measured. This receptor is in charge of binding adrenocorticotropic hormone (ACTH), which was elevated in animals that received antalarmin. The mineralocorticoid receptor mRNA expression is decreased in response to antalarmin as compared to the sham group. This could be due to a down regulation of the receptor in response to increased ACTH circulating levels. ** p<0.01.
compound,measurement,setting,value
CCCCN(CC)c1nc(C)nc2c1c(C)c(C)n2-c1c(C)cc(C)cc1C [antalarmin],UCN1 mRNA in uterus and vesicles,[1],not altered
same,glucocorticoid receptor (GR) mRNA in uterus,[1],no changes in uterus
same,glucocorticoid receptor (GR) mRNA in vesicles,[1],significant mRNA fold increase
same,CRHR2 mRNA in uterus and vesicles,[1]; increase only in vesicles of vehicle animals,No other changes were observed
same,CRHR1 mRNA in endometriosis vesicles,[1]; increased in vehicle group,this increase was not observed
same,CRH mRNA in uterus and vesicles,[1]; two-fold increase in vehicle rats,this increase was not observed
same,IL-6 in peritoneal fluid,[2]; 53 days after treatment,did not produce any change
same,serum corticosterone,[2]; day 60,slightly elevated
same,serum adrenocorticotropic hormone (ACTH),"[2]; day 60, compared to vehicle group",significantly elevated levels
same,mineralocorticoid receptor 2 mRNA expression in adrenal glands,[3],decreased
